Experimental data as given in PubChem BioAssay (NCI).
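Growth conditions: 96-well plates. Treatment: test compound, 48 hours, 5 concentrations. Analysis: linear interpolation between bracketing concentrations; unreached endpoints set to highest concentration. Abbreviation: GI50, concentration required for 50% inhibition of growth. At the TGI there is no net growth.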

Columns and labels:
Experiment in all cases: DTP human tumour cell line panel, 48 h
OVCAR-3 ovarian = tested on: OVCAR-3 ovarian
SNB-19 CNS = tested on: SNB-19 CNS
UACC-62 melanoma = tested on: UACC-62 melanoma
SN12C renal = tested on: SN12C renal
MDA-MB-468 breast = tested on: MDA-MB-468 breast
MDA-MB-231 breast = tested on: MDA-MB-231 breast
SK-MEL-28 melanoma = tested on: SK-MEL-28 melanoma
ACHN renal = tested on: ACHN renal
SNB-75 CNS = tested on: SNB-75 CNS
IGROV1 ovarian = tested on: IGROV1 ovarian
MCF7 breast = tested on: MCF7 breast
CAKI-1 renal = tested on: CAKI-1 renal
A549 NSCLC = tested on: A549 NSCLC
SK-MEL-5 melanoma = tested on: SK-MEL-5 melanoma
U251 CNS = tested on: U251 CNS
UACC-257 melanoma = tested on: UACC-257 melanoma
SF-295 CNS = tested on: SF-295 CNS
HCT-116 colon = tested on: HCT-116 colon
KM12 colon = tested on: KM12 colon
HOP-62 NSCLC = tested on: HOP-62 NSCLC
A498 renal = tested on: A498 renal
OVCAR-4 ovarian = tested on: OVCAR-4 ovarian
NCI-H226 lung = tested on: NCI-H226 lung
UO-31 renal = tested on: UO-31 renal
LOX IMVI melanoma = tested on: LOX IMVI melanoma
NCI-H522 lung = tested on: NCI-H522 lung
EKVX NSCLC = tested on: EKVX NSCLC
DU-145 prostate = tested on: DU-145 prostate
MDA-MB-435 = tested on: MDA-MB-435
786-0 renal = tested on: 786-0 renal
OVCAR-5 ovarian = tested on: OVCAR-5 ovarian
SF-268 CNS = tested on: SF-268 CNS
MOLT-4 leukemia = tested on: MOLT-4 leukemia
M14 melanoma = tested on: M14 melanoma
RPMI-8226 leukemia = tested on: RPMI-8226 leukemia
NCI/ADR-RES ovarian = tested on: NCI/ADR-RES ovarian
BT-549 breast = tested on: BT-549 breast
SK-OV-3 ovarian = tested on: SK-OV-3 ovarian
NCI-H460 lung = tested on: NCI-H460 lung
HL-60(TB) leukemia = tested on: HL-60(TB) leukemia
HCC-2998 colon = tested on: HCC-2998 colon
NCI-H23 lung = tested on: NCI-H23 lung
OVCAR-8 ovarian = tested on: OVCAR-8 ovarian
HT29 colon = tested on: HT29 colon
T-47D breast = tested on: T-47D breast
CCRF-CEM leukemia = tested on: CCRF-CEM leukemia
SK-MEL-2 melanoma = tested on: SK-MEL-2 melanoma
SF-539 CNS = tested on: SF-539 CNS
SR leukemia = tested on: SR leukemia
PC-3 prostate = tested on: PC-3 prostate
RXF 393 renal = tested on: RXF 393 renal
K-562 leukemia = tested on: K-562 leukemia
TK-10 renal = tested on: TK-10 renal
HS 578T breast = tested on: HS 578T breast
MALME-3M melanoma = tested on: MALME-3M melanoma
SW-620 colon = tested on: SW-620 colon
HCT-15 colon = tested on: HCT-15 colon
COLO 205 colon = tested on: COLO 205 colon
HOP-92 NSCLC = tested on: HOP-92 NSCLC

Structure (SMILES): O=C(N/N=C/c1ccoc1)c1[nH]c2ccc(Br)cc2c1-c1ccccc1
- GI50 (OVCAR-3 ovarian): 0.257 µM
- TGI (OVCAR-3 ovarian): 11.5 µM
- GI50 (SNB-19 CNS): 3.15 µM
- TGI (SNB-19 CNS): 20 µM
- GI50 (UACC-62 melanoma): 0.355 µM
- TGI (UACC-62 melanoma): 15.8 µM
- GI50 (SN12C renal): 0.485 µM
- TGI (SN12C renal): 12.1 µM
- GI50 (MDA-MB-468 breast): 0.346 µM
- TGI (MDA-MB-468 breast): 3.88 µM
- GI50 (MDA-MB-231 breast): 0.906 µM
- TGI (MDA-MB-231 breast): 12.3 µM
- GI50 (SK-MEL-28 melanoma): 2.75 µM
- TGI (SK-MEL-28 melanoma): 19.9 µM
- GI50 (ACHN renal): 0.79 µM
- TGI (ACHN renal): 14.4 µM
- GI50 (SNB-75 CNS): 0.299 µM
- TGI (SNB-75 CNS): 13.2 µM
- GI50 (IGROV1 ovarian): 1.25 µM
- TGI (IGROV1 ovarian): 13 µM
- GI50 (MCF7 breast): 0.21 µM
- TGI (MCF7 breast): 12.7 µM
- GI50 (CAKI-1 renal): 0.537 µM
- TGI (CAKI-1 renal): 15.4 µM
- GI50 (A549 NSCLC): 1.13 µM
- TGI (A549 NSCLC): 14.7 µM
- GI50 (SK-MEL-5 melanoma): 0.295 µM
- TGI (SK-MEL-5 melanoma): 1.67 µM
- GI50 (U251 CNS): 1.16 µM
- TGI (U251 CNS): 15.6 µM
- GI50 (UACC-257 melanoma): 7.66 µM
- TGI (UACC-257 melanoma): 23.3 µM
- GI50 (SF-295 CNS): 0.289 µM
- TGI (SF-295 CNS): 13 µM
- GI50 (HCT-116 colon): 0.166 µM
- TGI (HCT-116 colon): 11.1 µM
- GI50 (KM12 colon): 0.461 µM
- TGI (KM12 colon): 13.5 µM
- GI50 (HOP-62 NSCLC): 0.524 µM
- TGI (HOP-62 NSCLC): 17.6 µM
- GI50 (A498 renal): 15.6 µM
- TGI (A498 renal): 30.2 µM
- GI50 (OVCAR-4 ovarian): 5.23 µM
- TGI (OVCAR-4 ovarian): 20.9 µM
- GI50 (NCI-H226 lung): 3.04 µM
- TGI (NCI-H226 lung): 16.2 µM
- GI50 (UO-31 renal): 1.01 µM
- TGI (UO-31 renal): 15.2 µM
- GI50 (LOX IMVI melanoma): 0.265 µM
- TGI (LOX IMVI melanoma): 13.7 µM
- GI50 (NCI-H522 lung): 0.208 µM
- TGI (NCI-H522 lung): 1 µM
- GI50 (EKVX NSCLC): 1.03 µM
- TGI (EKVX NSCLC): 13.6 µM
- GI50 (DU-145 prostate): 0.568 µM
- TGI (DU-145 prostate): 12.4 µM
- GI50 (MDA-MB-435): 0.162 µM
- TGI (MDA-MB-435): 0.827 µM
- GI50 (786-0 renal): 0.665 µM
- TGI (786-0 renal): 14.4 µM
- GI50 (OVCAR-5 ovarian): 0.745 µM
- TGI (OVCAR-5 ovarian): 14.6 µM
- GI50 (SF-268 CNS): 1.2 µM
- TGI (SF-268 CNS): 14.5 µM
- GI50 (MOLT-4 leukemia): 0.405 µM
- TGI (MOLT-4 leukemia): 21 µM
- GI50 (M14 melanoma): 0.226 µM
- TGI (M14 melanoma): 14.7 µM
- GI50 (RPMI-8226 leukemia): 0.36 µM
- TGI (RPMI-8226 leukemia): 33.2 µM
- GI50 (NCI/ADR-RES ovarian): 0.231 µM
- TGI (NCI/ADR-RES ovarian): 1.31 µM
- GI50 (BT-549 breast): 0.416 µM
- TGI (BT-549 breast): 3.12 µM
- GI50 (SK-OV-3 ovarian): 3.54 µM
- TGI (SK-OV-3 ovarian): 18.4 µM
- GI50 (NCI-H460 lung): 0.252 µM
- TGI (NCI-H460 lung): 10.7 µM
- GI50 (HL-60(TB) leukemia): 0.205 µM
- TGI (HL-60(TB) leukemia): 0.852 µM
- GI50 (HCC-2998 colon): 0.755 µM
- TGI (HCC-2998 colon): 11.6 µM
- GI50 (NCI-H23 lung): 0.728 µM
- TGI (NCI-H23 lung): 14.2 µM
- GI50 (OVCAR-8 ovarian): 0.369 µM
- TGI (OVCAR-8 ovarian): 5.93 µM
- GI50 (HT29 colon): 0.329 µM
- TGI (HT29 colon): 2.92 µM
- GI50 (T-47D breast): 3.77 µM
- TGI (T-47D breast): 32.5 µM
- GI50 (CCRF-CEM leukemia): 0.227 µM
- TGI (CCRF-CEM leukemia): 15.3 µM
- GI50 (SK-MEL-2 melanoma): 0.954 µM
- TGI (SK-MEL-2 melanoma): 16.4 µM
- GI50 (SF-539 CNS): 0.246 µM
- TGI (SF-539 CNS): 1.08 µM
- GI50 (SR leukemia): 0.492 µM
- TGI (SR leukemia): 36.9 µM
- GI50 (PC-3 prostate): 0.436 µM
- TGI (PC-3 prostate): 16 µM
- GI50 (RXF 393 renal): 0.455 µM
- TGI (RXF 393 renal): 19.8 µM
- GI50 (K-562 leukemia): 0.197 µM
- TGI (K-562 leukemia): > 56.2 µM
- GI50 (TK-10 renal): 7.96 µM
- TGI (TK-10 renal): 24 µM
- GI50 (HS 578T breast): 0.279 µM
- TGI (HS 578T breast): 13 µM
- GI50 (MALME-3M melanoma): 5.25 µM
- TGI (MALME-3M melanoma): 21.4 µM
- GI50 (SW-620 colon): 0.297 µM
- TGI (SW-620 colon): 15.6 µM
- GI50 (HCT-15 colon): 0.328 µM
- TGI (HCT-15 colon): 11.9 µM
- GI50 (COLO 205 colon): 0.43 µM
- TGI (COLO 205 colon): 3.14 µM
- GI50 (HOP-92 NSCLC): 0.989 µM
- TGI (HOP-92 NSCLC): 13.3 µM
